The values that follow come from patent US20240300980A1, “HETEROCYCLIC COMPOUNDS AS KRAS INHIBITOR, AND PREPARATION THEREFOR AND USE THEREOF IN TREATMENT” (SHANGHAI KECHOW PHARMA, INC., priority 2021, published 2024).

Each structure is given as a SMILES string. pIC50: −log10 of the molar value.

Broadly, the pIC50 is −log10 of the IC50, conventionally taken in molar units.

In this test the test system is AGS cells (KRAS^G12D). The test can be described thus: Detection of cell proliferation in vitro by MTT/MTS method (cell activity experiment). Format: cell-based. The conditions noted are these: Homo sapiens, AGS, 72 h, AGS cells; MTT/MTS; 3 days of drug treatment; read-out: AGS IC50. The procedure, abridged: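 KRAS G12D AGS cells seeded at 1000 per well, compound added 24 h later, 0.5% final DMSO. Viability read after 3 days of treatment by MTT (solubilised in DMSO) or MTS, 4 h, absorbance 490 nm. IC50 from dose–response curves versus DMSO control.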
For orientation: Tetrazolium dyes change colour on reduction, which living cells bring about.
In the case of `Nc1cc2ccc(F)c(F)c2c(-c2ncc3c(N4C[C@H]5CC[C@@H](C4)N5)nc(OC[C@@]45CCCN4C[C@H](F)C5)nc3c2F)n1` [Example 38, 1-(4-((1R,5S)-3,8-diazabicyclo[3.2.1]octan-3-yl)-8-fluoro-2-(((2R,7aS)-2-fluorotetrahydro-1H-pyrrolizin-7a(5H)-yl)methoxy)pyrido[4,3-d]pyrimidin-7-yl)-7,8-difluoroisoquinolin-3-amine], the pIC50 is below 5.60.

As to `C#Cc1c(F)ccc2cc(O)cc(-c3ncc4c(N5C[C@H]6CC[C@@H](C5)S6)nc(OC[C@@]56CCCN5C[C@H](F)C6)nc4c3F)c12` [Example 21, 4-(4-((1R,5S)-8-thia-3-azabicyclo[3.2.1]octan-3-yl)-8-fluoro-2-(((2R,7aS)-2-fluorotetrahydro-1H-pyrrolizin-7a(5H)-yl)methoxy)pyrido[4,3-d]pyrimidin-7-yl)-5-ethynyl-6-fluoronaphthalen-2-ol], the pIC50 was 6.57.

Take `CCC1CCc2cc(O)cc(-c3c4c(c5c(N6C[C@H]7CC[C@@H](C6)N7)nc(OC[C@@]67CCCN6C[C@H](F)C7)nc5c3F)CCC4)c21` (stereo partly drawn) [Example 381, 7-(1-((1R,5S)-3,8-diazabicyclo[3.2.1]octan-3-yl)-5-fluoro-3-(((2R,7aS)-2-fluorotetrahydro-1H-pyrrolizin-7a(5H)-yl)methoxy)-8,9-dihydro-7H-cyclopenta[f]quinazolin-6-yl)-1-ethyl-2,3-dihydro-1H-inden-5-ol]: the pIC50 was 7.12.

Take `C#Cc1c(F)ccc2cc(O)cc(-c3ncc4c(N5CCC6(CCCS6(=O)=O)CC5)nc(OC[C@@]56CCCN5C[C@H](F)C6)nc4c3F)c12` [Example 50, 8-(7-(8-ethynyl-7-fluoro-3-hydroxynaphthalen-1-yl)-8-fluoro-2-(((2R, 7aS)-2-fluorotetrahydro-1H-pyrrolizin-7a(5H)-yl)methoxy)pyrido[4,3-d]pyrimidin-4-yl)-1-thia-8-azaspiro[4.5] decane 1,1-dioxide]: the pIC50 is below 5.00.

With `C#Cc1c(F)ccc2cc(O)cc(-c3c4c(c5c(N6C[C@H]7CC[C@@H](C6)N7)nc(OC[C@@]67CCCN6C[C@H](F)C7)nc5c3F)OCO4)c12` [Example 393, 4-(9-((1R,5S)-3,8-diazabicyclo[3.2.1]octan-3-yl)-5-fluoro-7-(((2R,7aS)-2-fluorotetrahydro-1H-pyrrolizin-7a(5H)-yl)methoxy)-[1,3]dioxolo[4,5-f]quinazolin-4-yl)-5-ethynyl-6-fluoronaphthalen-2-ol], the negative logarithm of the IC50 (pIC50) was 7.15.

For the molecule `N#Cc1c(OC[C@@]23CCCN2C[C@H](F)C3)nc2cc(-c3cccc4ccc(F)c(Cl)c34)ccc2c1N1C[C@H]2CC[C@@H](C1)N2` [Example 170, 4-((1R,5S)-3,8-diazabicyclo[3.2.1]octan-3-yl)-7-(8-chloro-7-fluoronaphthalen-1-yl)-2-(((2R,7aS)-2-fluorotetrahydro-1H-pyrrolizin-7a(5H)-yl)methoxy)quinoline-3-carbonitrile], the pIC50 was 5.98.

Consider `Oc1cc(-c2ncc3c(N4C[C@H]5CC[C@@H](C4)O5)nc(OC[C@@]45CCCN4C[C@H](F)C5)nc3c2F)c2c(F)cccc2c1` [Example 15, 4-(4-((1R,5S)-8-oxa-3-azabicyclo[3.2.1]octan-3-yl)-8-fluoro-2-(((2R,7aS)-2-fluorotetrahydro-1H-pyrrolizin-7a(5H)-yl)methoxy)pyrido[4,3-d]pyrimidin-7-yl)-5-fluoronaphthalen-2-ol], for which the pIC50 is 6.49.

As to `Oc1cc(-c2ncc3c(N4C[C@H]5CC[C@@H](C4)S5)nc(OC[C@@]45CCCN4C[C@H](F)C5)nc3c2F)c2c(F)c(F)ccc2c1` [Example 27, 4-(4-((1R,5S)-8-thia-3-azabicyclo[3.2.1]octan-3-yl)-8-fluoro-2-(((2R,7aS)-2-fluorotetrahydro-1H-pyrrolizin-7a(5H)-yl)methoxy)pyrido[4,3-d]pyrimidin-7-yl)-5,6-difluoronaphthalen-2-ol], the pIC50 is 6.53.

As to `C#Cc1c(F)ccc2cc(O)cc(-c3ccc4c(N5CCC6(CCCN6)CC5)nc(OC[C@@]56CCCN5C[C@H](F)C6)nc4c3F)c12` [Example 90, 5-ethynyl-6-fluoro-4-(8-fluoro-2-(((2R,7aS)-2-fluorotetrahydro-1H-pyrrolizin-7a(5H)-yl)methoxy)-4-(1,8-diazaspiro[4,5]decan-8-yl)quinazolin-7-yl)naphthalen-2-ol], the pIC50 is 5.05.

On to `N#Cc1c(OC[C@@]23CCCN2C[C@H](F)C3)nc2cc(-c3cc(O)cc4cccc(F)c34)ccc2c1N1C[C@H]2CC[C@@H](C1)N2` [Example 176, 4-((1R,5S)-3,8-diazabicyclo[3.2.1]octan-3-yl)-7-(8-fluoro-3-hydroxynaphthalen-1-yl)-2-(((2R,7aS)-2-fluorotetrahydro-1H-pyrrolizin-7a(5H)-yl)methoxy)quinoline-3-carbonitrile], for which the pIC50 was 5.87.

As for `C#Cc1c(F)ccc2cccc(-c3ccc4c(N5C[C@H]6CC[C@@H](C5)N6)nc(OC[C@]56CCCN5[C@@H](COC(=O)N(C)C)CC6)nc4c3)c12` [Example 155, ((3R,7aR)-7a-(((4-((1R, 5S)-3,8-diazabicyclo [3.2.1]octan-3-yl)-7-(8-ethynyl-7-fluoronaphthalen-1-yl)quinazolin-2-yl)oxy)methyl)hexahydro-1H-pyrrolizin-3-yl)methyl dimethylcarbamate], the pIC50 is 6.67.

As to `Oc1cc(N2CCc3c(nc(OC[C@@]45CCCN4C[C@H](F)C5)nc3N3C[C@H]4CC[C@@H](C3)N4)C2)c2c(F)cccc2c1` [Example 205, 4-(4-((1R,5S)-3,8-diazabicyclo[3.2.1]octan-3-yl)-2-(((2R,7aS)-2-fluorotetrahydro-1H-pyrrolizin-7a(5H)-yl)methoxy)-5,8-dihydropyrido[3,4-d]pyrimidin-7(6H)-yl)-5-fluoronaphthalen-2-ol], the negative logarithm of the IC50 (pIC50) was 7.74.

`Oc1cccc2cccc(C#Cc3ccc4c(N5C[C@H]6CC[C@@H](C5)N6)nc(OC[C@@]56CCCN5C[C@H](F)C6)nc4c3F)c12` [Example 364, 8-((4-((1R,5S)-3,8-diazabicyclo[3.2.1]octan-3-yl)-8-fluoro-2-(((2R,7aS)-2-fluorotetrahydro-1H-pyrrolizin-7a(5H)-yl)methoxy)quinazolin-7-yl)ethynyl)naphthalen-1-ol]: the pIC50 is 6.09.

Take `C#Cc1c(F)ccc2cc(N)nc(-c3ncc4c(N5C[C@H]6CC[C@@H](C5)N6)nc(OC[C@@]56CCCN5C[C@H](F)C6)nc4c3F)c12` [Example 40, 1-(4-((1R,5S)-3,8-diazabicyclo[3.2.1]octan-3-yl)-8-fluoro-2-(((2R,7aS)-2-fluorotetrahydro-1H-pyrrolizin-7a(5H)-yl)methoxy)pyrido[4,3-d]pyrimidin-7-yl)-8-ethynyl-7-fluoroisoquinolin-3-amine]: the pIC50 was below 5.60.

As for `Cc1cc(N)nc(-c2ncc3c(N4C[C@H]5CC[C@@H](C4)N5)nc(OC[C@@]45CCCN4C[C@H](F)C5)nc3c2F)c1C1CC1` [Example 72, 6-(4-((1R,5S)-3,8-diazabicyclo[3.2.1]octan-3-yl)-8-fluoro-2-(((2R,7aS)-2-fluorotetrahydro-1H-pyrrolizin-7a(5H)-yl)methoxy)pyrido[4,3-d]pyrimidin-7-yl)-5-cyclopropyl-4-methylpyridin-2-amine], the pIC50 was below 5.60.

Take `Cc1cc(N)nc(-c2ncc3c(N4C[C@H]5CC[C@@H](C4)N5)nc(OC[C@@]45CCCN4C[C@H](F)C5)nc3c2F)c1C(F)(F)F` [Example 41, 6-(4-((1R,5S)-3,8-diazabicyclo[3.2.1]octan-3-yl)-8-fluoro-2-(((2R,7aS)-2-fluorotetrahydro-1H-pyrrolizin-7a(5H)-yl)methoxy)pyrido[4,3-d]pyrimidin-7-yl)-4-methyl-5-(trifluoromethyl) pyridin-2-amine]: the pIC50 is below 5.60.

For `C#Cc1c(F)ccc2cc(O)cc(-c3cc4nc(OC[C@@]56CCCN5C[C@H](F)C6)c(C(F)(F)F)c(N5C[C@H]6CC[C@@H](C5)N6)c4cn3)c12` [Example 195, 4-(4-((1R,5S)-3,8-diazabicyclo[3.2.1]octan-3-yl)-2-(((2R,7aS)-2-fluorotetrahydro-1H-pyrrolizin-7a(5H)-yl)methoxy)-3-(trifluoromethyl)-1,6-naphthyridin-7-yl)-5-ethynyl-6-fluoronaphthalen-2-ol], the pIC50 is below 5.60.

As for `CCC1COc2cc(O)cc(-c3ncc4c(N5C[C@H]6CC[C@@H](C5)N6)nc(OC[C@@]56CCCN5C[C@H](F)C6)nc4c3F)c21` (stereo partly drawn) [Example 243, 4-(4-((1R,5S)-3,8-diazabicyclo[3.2.1]octan-3-yl)-8-fluoro-2-(((2R,7aS)-2-fluorotetrahydro-1H-pyrrolizin-7a(5H)-yl)methoxy)pyrido[4,3-d]pyrimidin-7-yl)-3-ethyl-2,3-dihydrobenzofuran-6-ol], the pIC50 is 7.74.

Consider `C#Cc1c(F)ccc2cc(O)cc(-c3cnc4c(N5C[C@H]6CC[C@@H](C5)N6)nc(OC[C@@]56CCCN5C[C@H](F)C6)nc4c3)c12` [Example 200, 4-(4-((1R,5S)-3,8-diazabicyclo[3.2.1]octan-3-yl)-2-(((2R,7aS)-2-fluorotetrahydro-1H-pyrrolizin-7a(5H)-yl)methoxy)pyrido[3,2-d]pyrimidin-7-yl)-5-ethynyl-6-fluoronaphthalen-2-ol], for which the pIC50 is below 5.60.

As for `C#Cc1c(F)ccc2cc(O)cc(-c3ccc4c(N5CC(C#N)C5)nc(OC[C@@]56CCCN5C[C@H](F)C6)nc4c3F)c12` [Example 134, 1-(7-(8-ethynyl-7-fluoro-3-hydroxynaphthalen-1-yl)-8-fluoro-2-(((2R, 7aS)-2-fluorotetrahydro-1H-pyrrolizin-7a(5H)-yl)methoxy)quinazolin-4-yl)azetidine-3-carbonitrile], the pIC50 is 6.23.

Take `CC1CCCc2cc(O)cc(-c3ccc4c(N5C[C@H]6CC[C@@H](C5)N6)nc(OC[C@@]56CCCN5C[C@H](F)C6)nc4c3F)c21` (stereo partly drawn) [Example 282, 4-(4-((1R,5S)-3,8-diazabicyclo[3.2.1]octan-3-yl)-8-fluoro-2-(((2R,7aS)-2-fluorotetrahydro-1H-pyrrolizin-7a(5H)-yl)methoxy)quinazolin-7-yl)-5-methyl-5,6,7,8-tetrahydronaphthalen-2-ol]: the pIC50 was 7.82.
